Measured values from patent publication US5475010A, “7'-amino-naphthazarin antibiotic derivatives” (Gruppo Lepetit S.p.A., priority 1991, dated 1995).
In brackets after ≈: the same amount, converted by molar mass. Where a name gives a salt, the structure may show the parent alone. Read-outs that look alike come from different tables or passages of the source.

Columns and labels:
[1] = system: Tricophyton mentagrophytes; experiment: MIC by broth microdilution, Trichophyton mentagrophytes; type: cell-based; conditions: 72 h
[2] = system: Pseudomonas aeruginosa ATCC 10145; experiment: MIC by broth microdilution, Pseudomonas aeruginosa; type: cell-based; conditions: ATCC10145, Table 2, internal code 4, approx. 10^4 cfu/ml, Iso-Sensitest broth, 37° C., 20-24 h, air
[3] = system: Candida albicans SKF 2270; experiment: MIC by broth microdilution, Candida albicans; type: cell-based; conditions: Table 2; internal code 145; approx. 10^4 cfu/ml; buffered Yeast Nitrogen Base broth + glucose + L-asparagine; 37° C., 20-24 h, air
[4] = system: Proteus vulgaris X19H ATCC 881; experiment: MIC by broth microdilution, Proteus vulgaris; type: cell-based; conditions: ATCC881
[5] = system: Staphilococcus haemolyticus (clin. isolate); experiment: MIC by broth microdilution, Staphylococcus haemolyticus; type: cell-based
[6] = system: Propionibacterium acnes ATCC 6919; experiment: MIC by broth microdilution, Propionibacterium acnes; type: cell-based; conditions: Cutibacterium acnes
[7] = system: Streptococcus pneumonieae UC 41; experiment: MIC by broth microdilution, Streptococcus pneumoniae; type: cell-based
[8] = system: Staphilococcus aureus Tour; experiment: MIC by broth microdilution, Staphylococcus aureus Tour; type: cell-based; conditions: Iso-Sensitest broth, 37° C., 20-24 h, air
[9] = system: Bacteroides fragiles ATCC 9689; experiment: MIC by broth microdilution, Bacteroides fragilis; type: cell-based; conditions: ATCC9689, Table 2, internal code 1010, approx. 10^4 cfu/ml, Wilkins-Chalgren broth, 37° C., 48 h, N2-CO2-H2 (80:10:10)
[10] = system: Escherichia coli SKF 12140; experiment: MIC by broth microdilution, Escherichia coli; type: cell-based
[11] = system: Neisseria gonorrhoeae ISM 68/126; experiment: MIC by broth microdilution, Neisseria gonorrhoeae; type: cell-based; conditions: ISM68/126, Table 2, internal code 997, approx. 10^4 cfu/ml, GC Base broth + 1% IsoVitaleX, 37° C., 48 h, 5% CO2
[12] = system: Streptococcus pyogenes C 203; experiment: MIC by broth microdilution, Streptococcus pyogenes; type: cell-based
[13] = system: Staphilococcus epidermidis ATCC 12228; experiment: MIC by broth microdilution, Staphylococcus epidermidis; type: cell-based
[14] = system: Enterococcus faecalis ATCC 7080; experiment: MIC by broth microdilution, Enterococcus faecalis; type: cell-based
[15] = system: Haemophilus influenzae type b ATCC 19418; experiment: MIC by broth microdilution, Haemophilus influenzae; type: cell-based; conditions: ATCC19418, Table 2, internal code 970, approx. 10^4 cfu/ml, Brain Heart infusion broth + 1% Supplement C, 37° C., 48 h, 5% CO2
[16] = system: Clostridium perfringens ISS 30543; experiment: microbe, parasite or virus in culture; type: cell-based; conditions: ISS30543, 48 h
[17] = system: fungi, including filamentous fungi (e.g., Trichophyton mentarophytes) and yeasts (e.g., Candida albicans); conditions: in vitro; U.S. Pat. No. 3,914,257; cited from earlier work
[18] = system: Gram-positive and Gram-negative bacteria; conditions: in vitro, known / U.S. Pat. No. 3,914,257, cited from earlier work
[19] = ATCC6919, Table 2, internal code 1014, approx. 10^4 cfu/ml, Wilkins-Chalgren broth, 37° C., 48 h, N2-CO2-H2 (80:10:10), read-out: MIC
[20] = UC41, Table 2, internal code 44, approx. 10^4 cfu/ml, Todd Hewitt broth, 37° C., 20-24 h, air, read-out: MIC
[21] = Table 2, internal code 165, + 30% bovine serum, read-out: MIC
[22] = Table 2, internal code 602, approx. 10^4 cfu/ml, Iso-Sensitest broth, 37° C., 20-24 h, air, read-out: MIC
[23] = ATCC12228, Table 2, internal code 147, approx. 10^4 cfu/ml, Iso-Sensitest broth, 37° C., 20-24 h, air, read-out: MIC
[24] = ATCC7080, Table 2, internal code 149, approx. 10^4 cfu/ml, Iso-Sensitest broth, 37° C., 20-24 h, air, read-out: MIC
[25] = Table 2, internal code 165, inoculum 10^6 cfu/ml
[26] = Table 2, internal code 165, inoculum approx. 10^4 cfu/ml
[27] = Table 2, internal code 165, + 30% bovine serum
[28] = Table 2, internal code 634, 1% (v/v) suspension of mycelia and conidia, YM broth, 30° C., air, read-out: MIC

| Structure (SMILES) | MIC [1] | MIC [2] | MIC [3] | MIC [4] | MIC [5] | MIC [6, 19] | MIC [7, 20] | MIC [9] | MIC [11] | MIC ([12]; C203) | MIC [5, 22] | MIC [13, 23] | MIC [8, 25] | MIC [8, 26] | MIC ([10]; SKF12140) | MIC ([7]; UC41) | MIC [8, 27] | MIC ([14]; ATCC7080) | other results |
| --- | --- | --- | --- | --- | --- | --- | --- | --- | --- | --- | --- | --- | --- | --- | --- | --- | --- | --- | --- |
| COC(=O)c1cc2cc3c(c(O)c2c(=O)o1)OC1(Cc2c(O)c4c(c(O)c2O1)C(=O)C(NCCN(C)C)=CC4=O)CC3O (centres unmarked) [Example 6, 7'-(2-dimethylaminoethylen)amino purpuromycin hydrochloride] | 128 µg/mL | 128 µg/mL | 64 µg/mL | 128 µg/mL | 0.5 µg/mL | 0.06 µg/mL | 0.06 µg/mL | 0.5 µg/mL |  |  |  |  |  |  |  |  |  |  | MIC [8, 21]: 0.25 µg/mL; MIC ([10]; SKF12140, Table 2, internal code 47, approx. 10^4 cfu/ml, Iso-Sensitest broth, 37° C., 20-24 h, air, read-out: MIC): 16 µg/mL |
| COC(=O)c1cc2cc3c(c(O)c2c(=O)o1)OC1(Cc2c(O)c4c(c(O)c2O1)C(=O)C(NCc1ccccc1)=CC4=O)CC3O (centres unmarked) [Example 8] | > 128 µg/mL | > 128 µg/mL |  | > 128 µg/mL |  |  | 0.06 µg/mL (≈ 0.0978 µM) |  | 0.25 µg/mL | 1 µg/mL (≈ 1.63 µM) | 0.13 µg/mL (≈ 0.212 µM) | 0.13 µg/mL (≈ 0.212 µM) | 1 µg/mL (≈ 1.63 µM) | 0.5 µg/mL (≈ 0.815 µM) | > 128 µg/mL |  |  |  | MIC [14, 24]: 4 µg/mL (≈ 6.52 µM); MIC [8, 21]: 32 µg/mL |
| CCCNC1=CC(=O)c2c(O)c3c(c(O)c2C1=O)OC1(C3)CC(O)c2cc3cc(C(=O)OC)oc(=O)c3c(O)c2O1 (centres unmarked) [Example 12, 7'-propylamino purpuromycin] | 128 µg/mL (≈ 226 µM) | 128 µg/mL (≈ 226 µM) | 64 µg/mL | 128 µg/mL (≈ 226 µM) |  |  |  | 0.03 µg/mL (≈ 0.0531 µM) | 0.06 µg/mL |  | 0.06 µg/mL (≈ 0.106 µM) | 0.016 µg/mL (≈ 0.0283 µM) | 0.03 µg/mL (≈ 0.0531 µM) | 0.03 µg/mL (≈ 0.0531 µM) | > 128 µg/mL | 0.03 µg/mL (≈ 0.0531 µM) | 2 µg/mL |  | MIC ([12]; C203, Table 2, internal code 49, approx. 10^4 cfu/ml, Todd Hewitt broth, 37° C., 20-24 h, air, read-out: MIC): 0.13 µg/mL (≈ 0.23 µM); MIC [15]: 0.13 µg/mL; MIC [14, 24]: 0.06 µg/mL (≈ 0.106 µM) |
| CNC1=CC(=O)c2c(O)c3c(c(O)c2C1=O)OC1(C3)CC(O)c2cc3cc(C(=O)OC)oc(=O)c3c(O)c2O1 (centres unmarked) [Example 14, 7'-methylamino purpuromycin] |  | > 128 µg/mL | 2 µg/mL | > 128 µg/mL |  | 0.008 µg/mL (≈ 0.0149 µM) | 0.016 µg/mL (≈ 0.0298 µM) | 0.03 µg/mL (≈ 0.0558 µM) | 0.06 µg/mL | 0.03 µg/mL (≈ 0.0558 µM) | 0.016 µg/mL (≈ 0.0298 µM) | 0.008 µg/mL (≈ 0.0149 µM) |  |  | > 128 µg/mL |  | 0.25 µg/mL | 0.03 µg/mL (≈ 0.0558 µM) | MIC [1, 28]: ≤ 0.13 µg/mL; MIC [15]: 0.13 µg/mL; MIC ([8]; Table 2, internal code 165, inoculum 10^6 cfu/ml, read-out: MIC): 0.06 µg/mL (≈ 0.112 µM); MIC ([8]; Table 2, internal code 165, inoculum approx. 10^4 cfu/ml, read-out: MIC): 0.016 µg/mL (≈ 0.0298 µM) |
| COC(=O)c1cc2cc3c(c(O)c2c(=O)o1)OC1(CC3)Cc2c(O)c3c(c(O)c2O1)C(=O)C(N)=CC3=O (centres unmarked) [Example 30, 7'-Amino-γ-rubromycin] |  | > 128 µg/mL | 16 µg/mL | > 128 µg/mL | 0.016 µg/mL (≈ 0.0315 µM) |  |  | 0.06 µg/mL (≈ 0.118 µM) |  | 0.03 µg/mL (≈ 0.0591 µM) |  |  |  | 0.016 µg/mL (≈ 0.0315 µM) | > 128 µg/mL | 0.016 µg/mL (≈ 0.0315 µM) | 1 µg/mL | 0.03 µg/mL (≈ 0.0591 µM) | MIC [1, 28]: 16 µg/mL (≈ 31.5 µM); MIC ([13]; ATCC12228): 0.016 µg/mL (≈ 0.0315 µM); MIC ([6]; ATCC6919, 48 h): 0.016 µg/mL (≈ 0.0315 µM) |
| CNC1=CC(=O)c2c(O)c3c(c(O)c2C1=O)OC1(CCc2cc4cc(C(=O)OC)oc(=O)c4c(O)c2O1)C3 (centres unmarked) [Example 32, 7'-methylamino γ-rubromycin] | > 128 µg/mL | > 128 µg/mL |  | > 128 µg/mL | 0.016 µg/mL (≈ 0.0307 µM) | 0.004 µg/mL (≈ 0.00767 µM) |  | 0.06 µg/mL (≈ 0.115 µM) |  | 0.03 µg/mL (≈ 0.0575 µM) |  |  | 0.03 µg/mL (≈ 0.0575 µM) | 0.016 µg/mL (≈ 0.0307 µM) | > 128 µg/mL | 0.016 µg/mL (≈ 0.0307 µM) | 0.25 µg/mL | 0.03 µg/mL (≈ 0.0575 µM) | MIC [16]: 0.016 µg/mL (≈ 0.0307 µM); MIC ([13]; ATCC12228): 0.016 µg/mL (≈ 0.0307 µM) |
| COC(=O)c1cc2cc3c(c(O)c2c(=O)o1)OC1(Cc2c(O)c4c(c(O)c2O1)C(=O)C(OC)=CC4=O)CC3O (centres unmarked) [Purpuromycin, purpuromycin] |  |  |  |  |  |  |  |  |  |  |  |  |  |  |  |  |  |  | activity against fungi [17]: active in vitro; antimicrobial activity against Gram-positive and Gram-negative bacteria [18]: known antimicrobial agents against Gram-positive and Gram-negative bacteria; antimicrobial activity against Gram-positive and Gram-negative bacteria ([18]; listed as purpuromycin): active in vitro |
| COC(=O)c1cc2cc3c(c(O)c2c(=O)o1)OC1(CC3)Cc2c(O)c3c(c(O)c2O1)C(=O)C(OC)=CC3=O (centres unmarked) [γ-Rubromycin] |  |  |  |  |  |  |  |  |  |  |  |  |  |  |  |  |  |  | antimicrobial activity against Gram-positive and Gram-negative bacteria [18]: known antimicrobial agents against Gram-positive and Gram-negative bacteria |
